Data on one compound can be found in the NIST ThermoML archive (doi:10.1016/j.jct.2015.12.017).

A short description of this series: Molar enthalpy of transition or fusion.

Numbers after ± are expanded uncertainties.

Take `O=P([O-])([O-])[O-].[Co+2].[Cs+]` [cesium cobalt(II) phosphate]: the “Molar enthalpy of transition or fusion” value reads like this: (Crystal 2, DSC) 0.113 ± 0.00227 kcal/mol; (Crystal 3, DSC) 0.0824 ± 0.00165 kcal/mol; (Crystal 4, Adiabatic calorimetry) 0.00728 ± 0.000136 kcal/mol.
